One assay has as its system Myzus persicae. The experiment in a line: Myzus persicae test (cabbage leaf dip). The assay is classed as in vivo. The note with it: for Kill in % after 1 day: Table A1; for Kill in % after 6 days: Table A2.
Assay [1] concerns Phaedon cochleariae larvae. The experiment in a line: Phaedon cochleariae larvae test (cabbage leaf dip).

Turning to `CN/C(=N\[N+](=O)[O-])NCc1cnc(Cl)s1` [clothianidin], in the assay with Myzus persicae (0.8 ppm), the “Kill in % after 1 day” value is on record as 40% and the “Kill in % after 6 days” value is 30%. In assay [1] (4 ppm, Table B1), the “Kill in % after 6^d” value is 20%. Further, in assay [1] (4 ppm, Table B2), the “Kill in % after 6^d” value is reported as 60%.

On to `CNC(=O)/C(=N/OC)c1ccccc1COc1cc(C)ccc1C` [dimoxystrobin], for which the “Kill in % after 6^d” value in assay [1] (20 ppm, Table B2) worked out at 0%.

pyraclostrobin: the “Kill in % after 6 days” value in the assay on Myzus persicae (100 ppm) worked out at 35%.

In the case of `CO/C=C(/C(=O)OC)c1ccccc1COc1cccc(C(F)(F)F)n1` [picoxystrobin], the “Kill in % after 1 day” value in the assay with Myzus persicae (100 ppm) was 0%. For the same molecule, in assay [1] (100 ppm, Table B1), the “Kill in % after 6^d” value was 0%.

Source of the values: patent US20080274882A1, “Insecticides Based on Selected Neonicotinoids and Strobilurins” (Bayer CropScience AG, priority 2004, published 2008).
